Experimental data from paper PMC6112376, “Comprehensive Analyses and Prioritization of Tox21 10K Chemicals Affecting Mitochondrial Function by in-Depth Mechanistic Studies” (Environmental Health Perspectives, 2018).
Like-named read-outs stand apart in the source and are kept apart here.

Tests used:
[1] = system: hNSC; assay: MMP assay in human neural stem cells (hNSC); assay type: cell-based; details: Homo sapiens, Neural stem cell, 1 h, read-out: hNSC IC50 (MMP)
[2] = system: HeLa cells expressing YFP-Parkin; assay: Parkin translocation assay; assay type: cell-based, human
[3] = system: HepG2 cells; assay: Intracellular ATP content (cell viability) assay; assay type: cell-based, human; details: Homo sapiens, HepG2, 40 h
[4] = system: Caenorhabditis elegans strain PE255; assay: In vivo C. elegans ATP status assay
[5] = system: HepG2 cells; assay: ROS-Glo hydrogen peroxide (ROS) assay; assay type: cell-based, human
[6] = system: Nrf2/ARE (ARE-bla HepG2 cells); assay: ARE β-lactamase reporter gene assay; assay type: cell-based, human; details: 16 h incubation, mean±SD of three experiments
[7] = system: p53 (p53-bla HCT-116 cells); assay: p53 β-lactamase reporter gene assay; assay type: cell-based, human; details: Homo sapiens; 16 h incubation; mean±SD of three experiments
[8] = system: HepG2 cells; details: cited from earlier work
[9] = system: rat primary hepatocytes
[10] = system: rat primary hepatocytes; assay: MMP assay in rat primary hepatocytes; details: Rattus norvegicus, Hepatocyte
[11] = system: isolated rat liver mitochondria; assay: Oxygen consumption, Clark-type oxygen electrode; assay type: biochemical
[12] = system: HepG2 cells; assay: cells; details: Homo sapiens; for Emax: HepG2, read-out: MMP assays efficacy (%) HepG2
[13] = system: Caenorhabditis elegans (Bristol N2); assay: C. elegans larval development and growth assay
[14] = read-out: ATP (HepG2, galactose) IC50
[15] = read-out: ATP (HepG2, glucose) IC50
[16] = 1 h, read-out: Rat hepatocytes IC50 (MMP)
[17] = HepG2, 1 h, read-out: HepG2 IC50 Galactose (MMP)
[18] = HepG2, 1 h, read-out: HepG2 IC50 Glucose (MMP)

O=C(Nc1ccc([N+](=O)[O-])cc1Cl)c1cc(Cl)ccc1O [Niclosamide, reference compound]
IC50 [1]: 0.42 µM | Parkin recruitment [2]: Active | IC50 [3, 14]: 2.26 µM | IC50 [3, 15]: 2.01 µM | LUM: mean difference in luminescence (ATP content) relative to plate controls ([4]; 0.5 µM): 0.1961 | LUM: mean difference in luminescence (ATP content) relative to plate controls ([4]; 1 µM): 0.1905 | LUM: mean difference in luminescence (ATP content) relative to plate controls ([4]; 5 µM): 0.2783 | LUM: mean difference in luminescence (ATP content) relative to plate controls ([4]; 10 µM): 0.1333 | LUM: mean difference in luminescence (ATP content) relative to plate controls ([4]; 25 µM): 0.2438 | LUM: mean difference in luminescence (ATP content) relative to plate controls ([4]; 50 µM): 0.3 | LUM: mean difference in luminescence (ATP content) relative to plate controls ([4]; 75 µM): 0.12 | LUM: mean difference in luminescence (ATP content) relative to plate controls ([4]; 100 µM): 0.1413 | ROS (HepG2) EC50 [5]: Inactive | ARE (HepG2) EC50 [6]: Inactive | EC50 [7]: 0.58 ± 0.49 µM | MMP assays efficacy (%) qHTS-HepG2 [8]: -98±4% | IC50 ([8]; read-out: MMP assays IC50 (µM), qHTS-HepG2): 0.03 ± 0.01 µM | MMP assays efficacy (%) Rat Hepatocytes [9]: -112±30% | Rat hepatocytes (efficacy) (MMP) [9]: 1.36±0.16 ( −107±13.5 ) % | IC50 ([10]; 1 h, read-out: IC50 in rat primary hepatocytes (MMP, tier-one retest)): 0.44 µM | IC50 [10, 16]: 1.36 µM | Potential Mechanism [11]: Uncoupler at low concentrations (0.064-0.16 µM), and Uncoupler + inhibitor at high concentrations (0.8-100 µM) | I-ADP, % of control (O2 consumption rate) ([11]; 0.00128 µM): 85 (30.5) % of control | I-sub, % of control (O2 consumption rate) ([11]; 0.00128 µM): 109 (10.5) % of control | II-ADP, % of control (O2 consumption rate) ([11]; 0.00128 µM): 92 (49.0) % of control | II-sub, % of control (O2 consumption rate) ([11]; 0.00128 µM): 108 (17.7) % of control | I-ADP, % of control (O2 consumption rate) ([11]; 0.0064 µM): 88 (31.4) % of control | I-sub, % of control (O2 consumption rate) ([11]; 0.0064 µM): 125 (12.0) % of control | II-ADP, % of control (O2 consumption rate) ([11]; 0.0064 µM): 87 (46.4) % of control | II-sub, % of control (O2 consumption rate) ([11]; 0.0064 µM): 109 (17.9) % of control | I-ADP, % of control (O2 consumption rate) ([11]; 0.032 µM): 103 (36.6) % of control | I-sub, % of control (O2 consumption rate) ([11]; 0.032 µM): 192 (18.4) % of control | II-ADP, % of control (O2 consumption rate) ([11]; 0.032 µM): 89 (47.7) % of control | II-sub, % of control (O2 consumption rate) ([11]; 0.032 µM): 132 (21.7) % of control | I-ADP, % of control (O2 consumption rate) ([11]; 0.16 µM): 126 (45.0) % of control | I-sub, % of control (O2 consumption rate) ([11]; 0.16 µM): 419 (40.2) % of control | II-ADP, % of control (O2 consumption rate) ([11]; 0.16 µM): 92 (49.0) % of control | II-sub, % of control (O2 consumption rate) ([11]; 0.16 µM): 230 (37.8) % of control | I-ADP, % of control (O2 consumption rate) ([11]; 0.8 µM): 85 (30.2) % of control | I-sub, % of control (O2 consumption rate) ([11]; 0.8 µM): 308 (29.6) % of control | II-ADP, % of control (O2 consumption rate) ([11]; 0.8 µM): 53 (28.1) % of control | II-sub, % of control (O2 consumption rate) ([11]; 0.8 µM): 204 (33.5) % of control | I-ADP, % of control (O2 consumption rate) ([11]; 4 µM): 70 (25.1) % of control | I-sub, % of control (O2 consumption rate) ([11]; 4 µM): 276 (26.5) % of control | II-ADP, % of control (O2 consumption rate) ([11]; 4 µM): 39 (21.1) % of control | II-sub, % of control (O2 consumption rate) ([11]; 4 µM): 147 (24.1) % of control | I-ADP, % of control (O2 consumption rate) ([11]; 20 µM): 79 (28.1) % of control | I-sub, % of control (O2 consumption rate) ([11]; 20 µM): 308 (29.6) % of control | II-ADP, % of control (O2 consumption rate) ([11]; 20 µM): 37 (19.6) % of control | II-sub, % of control (O2 consumption rate) ([11]; 20 µM): 145 (23.8) % of control | I-ADP, % of control (O2 consumption rate) ([11]; 100 µM): 93 (42.6) % of control | I-sub, % of control (O2 consumption rate) ([11]; 100 µM): 296 (45.9) % of control | II-ADP, % of control (O2 consumption rate) ([11]; 100 µM): 44 (31.3) % of control | II-sub, % of control (O2 consumption rate) ([11]; 100 µM): 119 (37.3) % of control | IC50 [12, 17]: 1.47 µM | IC50 [12, 18]: 0.87 µM | IC50 ([12]; HepG2, read-out: IC50 in HepG2 cells (MMP, tier-one retest)): 0.1 µM | Emax [12]: 87% | EXT: mean difference in nematode size relative to plate controls ([13]; 0.5 µM): 0.005018 | EXT: mean difference in nematode size relative to plate controls ([13]; 1 µM): -0.03083 | EXT: mean difference in nematode size relative to plate controls ([13]; 5 µM): -0.00657 | EXT: mean difference in nematode size relative to plate controls ([13]; 10 µM): 0.2753 | EXT: mean difference in nematode size relative to plate controls ([13]; 25 µM): 0.1226 | EXT: mean difference in nematode size relative to plate controls ([13]; 50 µM): 0.2162

N#CC(c1ccc(Cl)cc1)c1c(Cl)cc(-n2ncc(=O)[nH]c2=O)cc1Cl (centres unmarked) [Diclazuril, reference compound]
IC50 [1]: 20.6 µM | Parkin recruitment [2]: Inactive | IC50 [3, 14]: 43.4 µM | IC50 [3, 15]: 50.4 µM | LEC (lowest effect concentration), ATP assay ([4]; 24 h exposure): < 10 µM | minimal effective concentration ([4]; Caenorhabditis elegans, read-out: LEC LUM: lowest effect concentration for luminescence, a measure of nematode ATP content): 5 µM | ROS (HepG2) EC50 [5]: Inactive | EC50 ([6]; Homo sapiens, HepG2, read-out: ARE (HepG2) EC50): 10.9 µM | EC50 [7]: 27.9 ± 6.48 µM | MMP assays efficacy (%) qHTS-HepG2 [8]: -108±7% | IC50 ([8]; read-out: MMP assays IC50 (µM) qHTS-HepG2): 11.2 ± 2.79 µM | MMP assays efficacy (%) Rat Hepatocytes [9]: -114±26% | Rat hepatocytes (efficacy) (MMP) [9]: 11.5±5.18 ( −72.8±2.37 ) % | IC50 [10, 16]: 11.5 µM | IC50 ([10]; read-out: MMP assays IC50 (µM) Rat Hepatocytes): 5.7 ± 1.94 µM | I-ADP, % of control (O2 consumption rate) ([11]; 0.16 µM, glutamate/malate driven state 3 respiration, isolated rat liver mitochondria): 96 (22.7) % of control | I-sub, % of control (O2 consumption rate) ([11]; 0.16 µM, glutamate/malate driven state 4 respiration, isolated rat liver mitochondria): 174 (24.7) % of control | II-ADP, % of control (O2 consumption rate) ([11]; 0.16 µM, succinate-driven state 3 respiration, isolated rat liver mitochondria): 99 (32.7) % of control | II-sub, % of control (O2 consumption rate) ([11]; 0.16 µM, succinate-driven state 4 respiration, isolated rat liver mitochondria): 168 (35.8) % of control | I-ADP, % of control (O2 consumption rate) ([11]; 0.8 µM, glutamate/malate driven state 3 respiration, isolated rat liver mitochondria): 95 (41.4) % of control | I-sub, % of control (O2 consumption rate) ([11]; 0.8 µM, glutamate/malate driven state 4 respiration, isolated rat liver mitochondria): 290 (38.0) % of control | II-ADP, % of control (O2 consumption rate) ([11]; 0.8 µM, succinate-driven state 3 respiration, isolated rat liver mitochondria): 88 (59.6) % of control | II-sub, % of control (O2 consumption rate) ([11]; 0.8 µM, succinate-driven state 4 respiration, isolated rat liver mitochondria): 263 (54.9) % of control | I-ADP, % of control (O2 consumption rate) ([11]; 4 µM, glutamate/malate driven state 3 respiration, isolated rat liver mitochondria): 45 (41.9) % of control | I-sub, % of control (O2 consumption rate) ([11]; 4 µM, glutamate/malate driven state 4 respiration, isolated rat liver mitochondria): 115 (22.8) % of control | II-ADP, % of control (O2 consumption rate) ([11]; 4 µM, succinate-driven state 3 respiration, isolated rat liver mitochondria): 55 (67.2) % of control | II-sub, % of control (O2 consumption rate) ([11]; 4 µM, succinate-driven state 4 respiration, isolated rat liver mitochondria): 103 (35.2) % of control | I-ADP, % of control (O2 consumption rate) ([11]; 20 µM, glutamate/malate driven state 3 respiration, isolated rat liver mitochondria): 95 (41.4) % of control | I-sub, % of control (O2 consumption rate) ([11]; 20 µM, glutamate/malate driven state 4 respiration, isolated rat liver mitochondria): 124 (16.3) % of control | II-ADP, % of control (O2 consumption rate) ([11]; 20 µM, succinate-driven state 3 respiration, isolated rat liver mitochondria): 101 (68.5) % of control | II-sub, % of control (O2 consumption rate) ([11]; 20 µM, succinate-driven state 4 respiration, isolated rat liver mitochondria): 127 (26.6) % of control | I-ADP, % of control (O2 consumption rate) ([11]; 100 µM, glutamate/malate driven state 3 respiration, isolated rat liver mitochondria): 94 (41.1) % of control | I-sub, % of control (O2 consumption rate) ([11]; 100 µM, glutamate/malate driven state 4 respiration, isolated rat liver mitochondria): 115 (15.1) % of control | II-ADP, % of control (O2 consumption rate) ([11]; 100 µM, succinate-driven state 3 respiration, isolated rat liver mitochondria): 101 (68.3) % of control | II-sub, % of control (O2 consumption rate) ([11]; 100 µM, succinate-driven state 4 respiration, isolated rat liver mitochondria): 114 (23.8) % of control | IC50 [12, 17]: 46.3 µM | IC50 [12, 18]: 38.3 µM | Emax [12]: 99% | LEC (lowest effect concentration), larval growth assay ([13]; 48 h exposure): < 10 µM | minimal effective concentration ([13]; Caenorhabditis elegans, read-out: LEC EXT: lowest effect concentration for extinction, a measure of nematode size): 2.5 µM
